Measured values from patent US20150105252A1, “SUBSTITUTED PYRAZOLES AS HERBICIDES” (E I DU PONT DE NEMOURS AND COMPANY, priority 2013, published 2015).

Columns and labels:
blackgrass = assay: Test D preemergence; format: in vivo, Alopecurus myosuroides; conditions: for Plant response rating, Blackgrass: Preemergence, scale 0 to 100
Source text: (§1) Seeds of plant species selected from bluegrass (annual bluegrass, Poa annua), blackgrass (Alopecurus myosuroides), canarygrass (littleseed canarygrass, Phalaris minor), chickweed (common chickweed, Stellaria media), galium (catchweed bedstraw, Galium aparine), bromegrass, downy (downy bromegrass, Bromus tectorum), field poppy (Papaver rhoeas), field violet (Viola arvensis), foxtail, green (green foxtail, Setaria viridis), deadnettle (henbit deadnettle, Lamium amplexicaule), ryegrass, Italian (Italian ryegrass, Lolium multiflorum), kochia (Kochia scoparia), lambsquarters (Chenopodium album), oilseed rape (Brassica napus), pigweed (redroot pigweed, Amaranthus retroflexus), chamomile (scentless chamomile, Matricaria inodora), speedwell (bird's-eye speedwell, Veronica persica), barley, spring (spring barley, Hordeum vulgare), wheat, spring (spring wheat, Triticum aestivum), buckwheat, wild (wild buckwheat, Polygonum convolvulus), mustard, wild (wild mustard, Sinapis arvensis), oat, wild (wild oat, Avena fatua), radish, wild (wild radish, Raphanus raphanistrum), windgrass (Apera spica-venti), Russian thistle (Salsola kali), barley, winter (winter barley, Hordeum vulgare), and wheat, winter (winter wheat, Triticum aestivum) were planted into a silt loam soil and treated preemergence with test chemicals formulated in a non-phytotoxic solvent mixture which included a surfactant.
(§2) At the same time, these species were planted in pots containing Redi-Earth® planting medium (Scotts Company, 14111 Scottslawn Road, Marysville, Ohio 43041) comprising spaghnum peat moss, vermiculite, wetting agent and starter nutrients and treated with postemergence applications of the test chemicals formulated in the same manner. Plants ranged in height from 2 to 18 cm (1- to 4-leaf stage). Treated plants and controls were maintained in a controlled growth environment for 14 to 21 days after which time all species were compared to controls and visually evaluated. Plant response ratings, summarized in Table D, are based on a scale of 0 to 100 where 0 is no effect and 100 is complete control. A dash (-) response means no test result.

bromegrass, downy [1] = assay: Test D preemergence; format: in vivo, Bromus tectorum; conditions: for Plant response rating, Bromegrass, Downy: Preemergence, scale 0 to 100
In short: (§3)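 Visual injury scored 0–100 (0 none, 100 complete control) against controls 14–21 days after treatment in a controlled growth environment. Chemicals were formulated in a non-phytotoxic solvent mixture containing surfactant, applied to silt loam soil preemergence or to 1- to 4-leaf plants postemergence.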

field poppy = assay: Test D preemergence; format: in vivo, Papaver rhoeas; conditions: for Plant response rating, Field Poppy: Preemergence, scale 0 to 100
Source text: as §1, §2

deadnettle [2] = assay: Test D preemergence; format: in vivo, Lamium amplexicaule; conditions: for Plant response rating, Deadnettle: Preemergence, scale 0 to 100
Source text: as §1, §2

galium = assay: Test D postemergence; format: in vivo, Galium aparine; conditions: scale 0 to 100
In short: as §3

bromegrass, downy [3] = assay: Test D postemergence; format: in vivo, Bromus tectorum; conditions: scale 0 to 100
Source text: as §1, §2

foxtail, green = assay: Test D postemergence; format: in vivo, Setaria viridis; conditions: scale 0 to 100
Source text: as §1, §2

deadnettle [4] = assay: Test D postemergence; format: in vivo, Lamium amplexicaule; conditions: scale 0 to 100
In short: as §3

ryegrass, Italian = assay: Test D postemergence; format: in vivo, Lolium multiflorum; conditions: scale 0 to 100
In short: as §3

kochia = assay: Test D postemergence; format: in vivo, Kochia scoparia; conditions: scale 0 to 100
Source text: as §1, §2

lambsquarters = assay: Test D postemergence; format: in vivo, Chenopodium album; conditions: scale 0 to 100
In short: as §3

pigweed = assay: Test D postemergence; format: in vivo, Amaranthus retroflexus; conditions: scale 0 to 100
In short: as §3

[5] = 16 g ai/ha, taken as preemergence

## O=C(NC1CC1)c1cc(CCF)n(Cc2ccnc(C(F)(F)F)c2)n1 [Compound 176]
blackgrass; [5]
  Plant response rating (scale 0 to 100), Blackgrass: 0
blackgrass; 31 g ai/ha
  Plant response rating, Blackgrass: 0
blackgrass; 62 g ai/ha
  Plant response rating, Blackgrass: 10
blackgrass; 125 g ai/ha
  Plant response rating, Blackgrass: 20
bromegrass, downy [1]; [5]
  Plant response rating (scale 0 to 100), Bromegrass, Downy: 0
bromegrass, downy [1]; 31 g ai/ha
  Plant response rating, Bromegrass, Downy: 0
bromegrass, downy [1]; 62 g ai/ha
  Plant response rating, Bromegrass, Downy: 15
bromegrass, downy [1]; 125 g ai/ha
  Plant response rating, Bromegrass, Downy: 25
Field poppy; [5]
  Plant response rating (scale 0 to 100), Field Poppy: 10
Field poppy; 62 g ai/ha
  Plant response rating, Field Poppy: 55
Field poppy; 125 g ai/ha
  Plant response rating, Field Poppy: 100
Deadnettle [2]; [5]
  Plant response rating (scale 0 to 100), Deadnettle: 0
Deadnettle [2]; 31 g ai/ha
  Plant response rating, Deadnettle: 20
Deadnettle [2]; 62 g ai/ha
  Plant response rating, Deadnettle: 80
Deadnettle [2]; 125 g ai/ha
  Plant response rating, Deadnettle: 100
galium; Postemergence, 16 g ai/ha
  Plant response rating, Galium: 55
galium; Postemergence, 31 g ai/ha
  Galium plant response rating: 65
galium; Postemergence, 125 g ai/ha
  Galium plant response rating: 65
galium; postemergence, 62 g ai/ha
  Galium plant response rating: 65
bromegrass, downy [3]; Postemergence, 16 g ai/ha
  Plant response rating, Bromegrass, Downy: 10
bromegrass, downy [3]; Postemergence, 31 g ai/ha
  Bromegrass, Downy plant response rating: 25
bromegrass, downy [3]; Postemergence, 125 g ai/ha
  Bromegrass, Downy plant response rating: 30
bromegrass, downy [3]; postemergence, 62 g ai/ha
  Bromegrass, Downy plant response rating: 25
foxtail, green; Postemergence, 16 g ai/ha
  Plant response rating, Foxtail, Green: 10
foxtail, green; Postemergence, 31 g ai/ha
  Foxtail, Green plant response rating: 20
foxtail, green; Postemergence, 125 g ai/ha
  Foxtail, Green plant response rating: 35
foxtail, green; postemergence, 62 g ai/ha
  Foxtail, Green plant response rating: 20
Deadnettle [4]; Postemergence, 16 g ai/ha
  Plant response rating, Deadnettle: 10
Deadnettle [4]; Postemergence, 31 g ai/ha
  Deadnettle plant response rating: 35
Deadnettle [4]; Postemergence, 125 g ai/ha
  Deadnettle plant response rating: 45
Deadnettle [4]; postemergence, 62 g ai/ha
  Deadnettle plant response rating: 35
ryegrass, Italian; Postemergence, 16 g ai/ha
  Plant response rating, Ryegrass, Italian: 5
ryegrass, Italian; Postemergence, 31 g ai/ha
  Ryegrass, Italian plant response rating: 5
ryegrass, Italian; Postemergence, 125 g ai/ha
  Ryegrass, Italian plant response rating: 10
ryegrass, Italian; postemergence, 62 g ai/ha
  Ryegrass, Italian plant response rating: 5
kochia; Postemergence, 16 g ai/ha
  Plant response rating, Kochia: 30
kochia; Postemergence, 31 g ai/ha
  Kochia plant response rating: 65
kochia; Postemergence, 125 g ai/ha
  Kochia plant response rating: 70
kochia; postemergence, 62 g ai/ha
  Kochia plant response rating: 65
lambsquarters; Postemergence, 16 g ai/ha
  Plant response rating, Lambsquarters: 55
lambsquarters; Postemergence, 31 g ai/ha
  Lambsquarters plant response rating: 60
lambsquarters; Postemergence, 125 g ai/ha
  Lambsquarters plant response rating: 75
lambsquarters; postemergence, 62 g ai/ha
  Lambsquarters plant response rating: 60
pigweed; Postemergence, 16 g ai/ha
  Plant response rating, Pigweed: 55
pigweed; Postemergence, 31 g ai/ha
  Pigweed plant response rating: 65
pigweed; Postemergence, 125 g ai/ha
  Pigweed plant response rating: 70
pigweed; postemergence, 62 g ai/ha
  Pigweed plant response rating: 65

## CCCc1cc(C(=O)NC(C)C)nn1Cc1cc(C(F)(F)F)nn1C [Compound 201]
blackgrass; 31 g ai/ha
  Plant response rating, Blackgrass: 35
blackgrass; 62 g ai/ha
  Plant response rating, Blackgrass: 90
blackgrass; 125 g ai/ha
  Plant response rating, Blackgrass: 100
blackgrass; 250 g ai/ha
  Plant response rating, Blackgrass: 100
bromegrass, downy [1]; 31 g ai/ha
  Plant response rating, Bromegrass, Downy: 20
bromegrass, downy [1]; 62 g ai/ha
  Plant response rating, Bromegrass, Downy: 60
bromegrass, downy [1]; 125 g ai/ha
  Plant response rating, Bromegrass, Downy: 70
bromegrass, downy [1]; 250 g ai/ha
  Plant response rating, Bromegrass, Downy: 100
Field poppy; 62 g ai/ha
  Plant response rating, Field Poppy: 100
Field poppy; 125 g ai/ha
  Plant response rating, Field Poppy: 100
Field poppy; 250 g ai/ha
  Plant response rating, Field Poppy: 100
Deadnettle [2]; 31 g ai/ha
  Plant response rating, Deadnettle: 100
Deadnettle [2]; 62 g ai/ha
  Plant response rating, Deadnettle: 100
Deadnettle [2]; 125 g ai/ha
  Plant response rating, Deadnettle: 100
Deadnettle [2]; 250 g ai/ha
  Plant response rating, Deadnettle: 100
galium; Postemergence, 31 g ai/ha
  Galium plant response rating: 70
galium; Postemergence, 125 g ai/ha
  Galium plant response rating: 70
galium; Postemergence, 250 g ai/ha
  Galium plant response rating: 85
galium; postemergence, 62 g ai/ha
  Galium plant response rating: 70
bromegrass, downy [3]; Postemergence, 31 g ai/ha
  Bromegrass, Downy plant response rating: 30
bromegrass, downy [3]; Postemergence, 125 g ai/ha
  Bromegrass, Downy plant response rating: 35
bromegrass, downy [3]; Postemergence, 250 g ai/ha
  Bromegrass, Downy plant response rating: 50
bromegrass, downy [3]; postemergence, 62 g ai/ha
  Bromegrass, Downy plant response rating: 30
foxtail, green; Postemergence, 31 g ai/ha
  Foxtail, Green plant response rating: 30
foxtail, green; Postemergence, 125 g ai/ha
  Foxtail, Green plant response rating: 40
foxtail, green; Postemergence, 250 g ai/ha
  Foxtail, Green plant response rating: 55
foxtail, green; postemergence, 62 g ai/ha
  Foxtail, Green plant response rating: 30
Deadnettle [4]; Postemergence, 31 g ai/ha
  Deadnettle plant response rating: 55
Deadnettle [4]; Postemergence, 125 g ai/ha
  Deadnettle plant response rating: 60
Deadnettle [4]; Postemergence, 250 g ai/ha
  Deadnettle plant response rating: 65
Deadnettle [4]; postemergence, 62 g ai/ha
  Deadnettle plant response rating: 55
ryegrass, Italian; Postemergence, 31 g ai/ha
  Ryegrass, Italian plant response rating: 15
ryegrass, Italian; Postemergence, 125 g ai/ha
  Ryegrass, Italian plant response rating: 20
ryegrass, Italian; Postemergence, 250 g ai/ha
  Ryegrass, Italian plant response rating: 50
ryegrass, Italian; postemergence, 62 g ai/ha
  Ryegrass, Italian plant response rating: 15
kochia; Postemergence, 31 g ai/ha
  Kochia plant response rating: 75
kochia; Postemergence, 125 g ai/ha
  Kochia plant response rating: 85
kochia; Postemergence, 250 g ai/ha
  Kochia plant response rating: 85
kochia; postemergence, 62 g ai/ha
  Kochia plant response rating: 75
lambsquarters; Postemergence, 31 g ai/ha
  Lambsquarters plant response rating: 75
lambsquarters; Postemergence, 125 g ai/ha
  Lambsquarters plant response rating: 90
lambsquarters; Postemergence, 250 g ai/ha
  Lambsquarters plant response rating: 90
lambsquarters; postemergence, 62 g ai/ha
  Lambsquarters plant response rating: 75
pigweed; Postemergence, 31 g ai/ha
  Pigweed plant response rating: 70
pigweed; Postemergence, 125 g ai/ha
  Pigweed plant response rating: 75
pigweed; Postemergence, 250 g ai/ha
  Pigweed plant response rating: 80
pigweed; postemergence, 62 g ai/ha
  Pigweed plant response rating: 70
